This note sets out measurements from PubChem BioAssay AID1645866 (Buhrlage Lab, Dana-Farber Cancer Institute and Novartis …, 2021).

For the assay, the target named is Ubiquitin carboxyl-terminal hydrolase 28 (Homo sapiens) (UniProt Q96RU2). Briefly: Concentration-response biochemical assay confirming initial hits as inhibitors of ubiquitin-specific protease 28 (AID 1645866). The conditions noted are these: purified USP28, ubiquitin-rhodamine fluorescence, 30 min.

Molecules are shown by their SMILES. Active and inactive are the calls of the source.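 How the source made its calls: active means in confirmatory dose-response testing, peak deubiquitinase inhibition of 30% or more; inactive means the rest.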

Ubiquitin carboxyl-terminal hydrolase 28 (Homo sapiens), sequence (Q96RU2 whole entry, looked up): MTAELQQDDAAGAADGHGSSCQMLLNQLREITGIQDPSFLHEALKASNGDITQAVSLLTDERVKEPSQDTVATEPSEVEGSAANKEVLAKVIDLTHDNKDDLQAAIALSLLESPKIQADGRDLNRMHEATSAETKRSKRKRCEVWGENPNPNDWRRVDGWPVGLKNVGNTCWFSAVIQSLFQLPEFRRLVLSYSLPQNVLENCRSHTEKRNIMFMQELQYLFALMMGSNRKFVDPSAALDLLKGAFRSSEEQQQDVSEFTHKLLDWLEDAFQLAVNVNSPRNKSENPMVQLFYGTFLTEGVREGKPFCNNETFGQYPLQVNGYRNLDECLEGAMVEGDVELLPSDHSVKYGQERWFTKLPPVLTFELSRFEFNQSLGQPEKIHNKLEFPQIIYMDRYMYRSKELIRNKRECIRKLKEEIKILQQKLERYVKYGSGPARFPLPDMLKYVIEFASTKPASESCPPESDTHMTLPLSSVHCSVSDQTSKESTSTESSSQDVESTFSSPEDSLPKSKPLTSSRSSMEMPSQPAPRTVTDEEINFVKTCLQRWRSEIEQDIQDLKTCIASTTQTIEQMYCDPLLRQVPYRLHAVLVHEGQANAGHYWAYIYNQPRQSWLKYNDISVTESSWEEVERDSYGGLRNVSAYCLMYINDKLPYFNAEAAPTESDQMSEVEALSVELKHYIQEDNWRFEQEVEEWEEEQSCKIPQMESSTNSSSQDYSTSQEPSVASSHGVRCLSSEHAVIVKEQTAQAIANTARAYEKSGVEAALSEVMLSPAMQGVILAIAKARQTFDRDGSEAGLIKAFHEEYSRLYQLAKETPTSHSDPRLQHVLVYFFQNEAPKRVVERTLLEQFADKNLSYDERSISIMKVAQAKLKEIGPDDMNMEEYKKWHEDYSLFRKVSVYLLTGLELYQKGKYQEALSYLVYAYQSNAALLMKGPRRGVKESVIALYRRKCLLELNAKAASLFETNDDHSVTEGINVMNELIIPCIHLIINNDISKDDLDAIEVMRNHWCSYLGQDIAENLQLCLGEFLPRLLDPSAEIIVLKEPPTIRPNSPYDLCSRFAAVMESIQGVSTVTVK

Take `CCOC(=O)c1cc2c(ccn2C)n1CC(=O)N1CCc2ccccc2C1`: the IC50 is > 50 µM (inactive).
Then `N#Cc1ccccc1COC(=O)c1ccc2ccccc2n1`, with 6.94 µM; and `O=C(COc1ccc(F)cc1)Nc1cnc(-c2ccc(Cl)cc2)nc1`, with 34.2 µM; and `CCCCc1nc2sc3c(NCCN4CCOCC4)ncnc3c2c2c1CCC2`, with 0.549 µM.
Then `CCC(=O)Nc1cccnc1-c1ccc(C(=O)Nc2cccc(OC)c2)cc1`, with 14.5 µM.
With `CN1CCN(C(=O)c2ccn(-c3ccc4ccc(-c5cnn(C)c5)cn34)n2)CC1`, the IC50 is > 50 µM (inactive).
Then `N#Cc1cccc(S(=O)(=O)N2CCc3nc4ccccc4n3CC2)c1`, with 21.7 µM.
Then `CCOC(=O)c1cn(C2CC2)c2cc(N3CCNCC3)c([N+](=O)[O-])cc2c1=O`, with > 50 µM (inactive); and `CCOc1ccc2c(c1)c(=O)c(C(=O)c1ccccc1)cn2CC(=O)Nc1ccccc1`, with 9.83 µM; and `COc1ccc(-c2[nH]c3ccccc3c2SCCNC(=O)c2ccc(S(=O)(=O)N3CCOCC3)cc2)cc1`, with 30 µM.
Then `Nc1ccc(F)c(NS(=O)(=O)c2ccccc2)c1`, with > 50 µM (inactive).
For the molecule `COc1ccc(Cl)c(NC(=O)C2CC(=O)Nc3cc(-c4ccccc4)nn32)c1` (configuration not stated), the IC50 is 17.3 µM.
In the case of `O=C(Cc1cc(-c2ccccc2)on1)NCc1c(F)cccc1F`, the IC50 is 29.1 µM.
Turning to `Cc1ccc2c(c1)c(=O)c(C(=O)c1ccccc1)cn2CC(=O)Nc1ccc2c(c1)OCCO2`, the half-maximal inhibitory concentration (IC50) is 4.21 µM.
Regarding `O=C(CCCC(=O)c1ccccc1)Nc1ccc(F)cc1`, the IC50 was 35 µM.
Then `O=C(Nc1ccc2c(c1)OCCO2)c1ccc(N2CCCC2=O)cc1`, with 7.18 µM.
Take `COc1ccc(C(=O)CSc2nnc(-c3cc4cccc(OC)c4o3)n2C)cc1OC`: the IC50 was > 50 µM (inactive).
Then `Nc1ccccc1SC(CC(=O)c1ccc(Cl)cc1)c1ccsc1` (configuration not stated), with > 50 µM (inactive); and `Cc1ccc(OCC(=O)Nc2cccc(-c3nc4ncccc4o3)c2)c(C)c1`, with 38.5 µM.
On to `COc1cccc(N2CCN(C(=O)CCNS(=O)(=O)c3ccc4c(c3)CCC(=O)N4)CC2)c1`, for which the IC50 is > 50 µM (inactive).
As for `Cc1c(C)n(-c2ccccc2)c2ncn(CC(=O)N(C)Cc3ccccc3)c(=O)c12`, the IC50 was > 50 µM (inactive).
For `Cc1oc(-c2ccc(C(=O)NCC3COCCO3)cc2)nc1CN1CCc2ccccc21` (configuration not stated), the IC50 is 38.8 µM.
Take `Cc1nc(-c2cccc(NC(=O)c3ccccc3Cl)c2)no1`: the IC50 was 16.6 µM.
`O=c1c(OC2O[C@H](CO)[C@H](O)[C@H](O)[C@H]2O)c(-c2ccc(O)cc2)oc2cc(O)cc(O)c12` (some centres not stated): the IC50 was > 50 µM (inactive).
Then `COc1ccccc1NC(=O)c1cc(-c2ccccn2)nc2ccccc12`, with 27.4 µM; and `Cc1cnnn1-c1ccc(C(=O)Nc2ccc(Cl)cc2)cc1`, with 20.3 µM.
Then `Cc1cccc(C(=O)OCC(=O)Nc2ccc3[nH]c(=O)[nH]c3c2)c1C`, with 4.94 µM.
`Cc1ccc2[nH]c(=O)c(CN(Cc3cccnc3)C(=O)c3cccc(Cl)c3)cc2c1`: the IC50 is > 50 µM (inactive).
Then `O=S(=O)(c1ccccc1)N1CCN2Cc3ccccc3N(Cc3ccccc3)CC2C1` (configuration not stated), with > 50 µM (inactive).
Then `O=C(COc1ccc(Cl)cc1)NCc1nnc(SCC(=O)NCc2ccc3c(c2)OCO3)o1`, with 28.4 µM; and `FC(F)(F)c1cccc(CSc2ccc3nnc(-c4ccccn4)n3n2)c1`, with 1.75 µM; and `COc1ccc(-c2nc3n(n2)C(CC(=O)Nc2cccc4ccccc24)C(=O)N3)cc1` (configuration not stated), with 4.08 µM.
Then `O=C(Cn1c(NCc2ccccc2)nc2ccccc21)NCC(F)(F)F`, with 46.6 µM; and `Cc1nn(-c2cc(N3CCOCC3)ncn2)c(C)c1CCC(=O)Nc1ccc(C(C)C)cc1`, with 23 µM.
As for `O=C(Nc1ccccc1)c1nc2c(s1)CCN(C(=O)c1ccccc1)CC2`, the IC50 was > 50 µM (inactive).
Then `Cn1cc(NC(=O)Nc2cccc3ccccc23)c2ccccc21`, with 16.5 µM.
Then `CCOc1cc(N2CCOCC2)c(OCC)cc1NC(=O)c1cc(-c2ccncc2)nc2ccccc12`, with 7.24 µM.
Then `Cc1ccc2c(=O)c3c([nH]c2c1C)CCN(CC(=O)NCc1ccccc1)C3`, with > 50 µM (inactive).
With `O=C(Nc1cccc(Br)c1)c1cc(-c2cccnc2)n[nH]1`, the IC50 was 2.15 µM.
Then `Cc1ccccc1NC(=O)Cn1c(N2CCOCC2)nc2cc(C)n(C)c2c1=O`, with 20.1 µM; and `CN(c1ccccc1)c1nc(=O)n(CC(=O)Nc2ccc3c(c2)OCCO3)c2ccccc12`, with 28.2 µM; and `COc1ccccc1CNC(=O)CCCn1c(=O)c2ccccc2n(CC(=O)N2CCN(c3ccccc3)CC2)c1=O`, with 28.8 µM.
Turning to `O=C(NCCc1ccccc1)c1nnn(Cc2cccc(Cl)c2)c1-n1cccc1`, the half-maximal inhibitory concentration (IC50) was 1.37 µM.
Take `CC(C)c1cc(NCc2ccccc2)n2nc(-c3cccnc3)nc2n1`: the IC50 was 16.9 µM.
Consider `N#Cc1c(Cl)cccc1Oc1ccc(S(=O)(=O)N2CCC(O)CC2)cc1`, for which the IC50 is 19.5 µM.
`CCC(C)Oc1cccc(C(=O)Nc2ccc(CN3CCOCC3)cc2)c1` (configuration not stated): the IC50 is 1.74 µM.
Then `COc1ccc(NC(=O)c2ccc(-n3nnnc3SC)cc2)cc1Cl`, with 31.1 µM.
As to `COc1cc(OC)cc(C(=O)Nc2cnc(-c3ccccc3)nc2)c1`, the IC50 is > 50 µM (inactive).
As to `CCc1ccc(NC(=O)COc2cccc(-n3cnnn3)c2)cc1`, the IC50 was 25 µM.
With `CCn1c(SCC(=O)N2c3ccccc3CC2C)nnc1-c1ccc2c(c1)OCCO2` (configuration not stated), the IC50 was 33.8 µM.
As to `CCCCCCCc1cc(O)cc(O)c1`, the concentration for half-maximal inhibition (IC50) was 4.32 µM.
In the case of `O=c1c2ccccc2oc2nc(-c3cccs3)n(-c3ccccc3)c(=O)c12`, the IC50 was 2.12 µM.
Then `COc1ccc(O)c(C(=O)OCc2cc(=O)oc3ccc4ccccc4c23)c1`, with > 50 µM (inactive).
In the case of `COc1ccc(NC(=O)Cn2cc(C(=O)c3ccc(C)cc3)c(=O)c3ccccc32)cc1`, the concentration for half-maximal inhibition (IC50) was 2.67 µM.
Then `Cc1nn(Cc2ccccc2)c(C)c1C(=O)NC1CCCc2ccccc21` (configuration not stated), with 5.14 µM; and `O=C(NCc1ccccc1)c1ccc2c(=O)n(-c3ccccc3)c(=O)[nH]c2c1`, with 18.6 µM.
Then `Cn1c2ccccc2c2ncn(Cc3ccc(F)cc3)c(=O)c21`, with 6.71 µM; and `CC(C)(C)C(=O)Nc1ccc(C(=O)Nc2cccc(-c3nnc(-c4ccccc4)o3)c2)cc1`, with 4.78 µM.
Then `COc1ccccc1-c1nc2c3c(ncn2n1)Oc1c(c(C)nn1-c1ccccc1)C3c1cccnc1` (configuration not stated), with 40.9 µM.
With `O=C(Nc1ccc(NS(=O)(=O)c2ccc3c4c(cccc24)CC3)cc1)c1ccccc1`, the 50% inhibitory concentration (IC50) was 37.7 µM.
Then `CCN(C(=O)c1cc2c(s1)-c1ccccc1OC2)c1ccccc1F`, with 19.6 µM.
Then `Cc1cc(=O)n(C)c2c(O)c3c(cc12)c(C)cc(=O)n3C`, with 43.9 µM.
With `O=C(Cn1c(-c2ccccc2)ncc(C(=O)NC2CC2)c1=O)Nc1ccccc1`, the IC50 is 14.2 µM.
In the case of `Cc1nn(-c2ccccc2)c(C)c1C(=O)OCC(=O)Nc1cccc(C#N)c1`, the IC50 was 15.9 µM.
Take `Cc1cccc(NC(=O)Cn2cnc(-c3noc(-c4ccccc4)n3)c2)c1C`: the IC50 is 1.31 µM.
With `CC(=O)N1CCCC(c2nc(C)cc(-c3cc(F)ccc3C(=O)O)n2)C1` (configuration not stated), the IC50 was > 50 µM (inactive).
Turning to `Cc1ccc(CNC(=O)CCCn2c(=O)c3sccc3n(CC(=O)Nc3cc(Cl)ccc3C)c2=O)cc1`, the half-inhibitory concentration (IC50) is 2.87 µM.
As for `O=C(CCc1nnc2n(Cc3ccccc3)c(=O)c3ccccc3n12)N1CCN(c2ccccn2)CC1`, the IC50 was 2.98 µM.
On to `Cc1ccc(NC(=O)C2CCN(c3cncnc3N3CCCC3)CC2)cc1`, for which the half-inhibitory concentration (IC50) was 0.456 µM.
Then `Cc1ccc(-c2nc(NC(=O)Nc3ccc(Cl)cc3)sc2C)cc1`, with 32.9 µM; and `CS(=O)(=O)N1CCCN(c2nc3cc(Cl)ccc3n3cccc23)CC1`, with > 50 µM (inactive).
As to `Cc1ccc(NC(=O)c2ccc3c(c2)N(S(C)(=O)=O)CC3)cc1`, the concentration for half-maximal inhibition (IC50) is 25.2 µM.
Then `CSc1ccccc1NC(=O)c1ccc(-n2cccn2)nn1`, with 5.75 µM; and `Fc1cccc(Cn2cc(-c3noc(-c4cccnc4)n3)nn2)c1`, with 29.1 µM.
Then `COc1ccc(CNC(=O)CN2C(=O)C(C)=C(c3ccc(C)cc3)S2(=O)=O)cc1`, with > 50 µM (inactive); and `CCCCN(C)C(=O)c1cc2c(=O)n3cccc(C)c3nc2n1Cc1ccccc1`, with > 50 µM (inactive); and `O=C(NC(Cc1ccccc1)c1nc2ccccc2[nH]1)C1CC1` (configuration not stated), with > 50 µM (inactive).
Turning to `O=C(/C=C/c1ccc(F)cc1)N1CCC(Cc2ccccc2)CC1`, the IC50 was 47.4 µM.
Then `O=C(/C=C/c1cnc2ccccc2c1)NCc1ccccc1`, with 22.6 µM; and `Cc1ccc2c(c1)-c1c(c(C(=O)N3CCN(c4ccccc4)CC3)nn1C)CS2`, with > 50 µM (inactive); and `COc1ccc(CCn2cnc3c([nH]c4ccccc43)c2=O)cc1`, with 12.5 µM.
As for `COc1ccc(C(=O)CSc2ccc3nnc(CCNC(=O)c4ccc(OC)cc4)n3n2)cc1`, the IC50 was > 50 µM (inactive).
Then `COc1ccc(-n2ccn3c(CCC(=O)NCc4ccc(F)cc4)nnc3c2=O)cc1`, with 25.3 µM; and `COc1ccc(C2CC(c3ccc(C)cc3)N(C(=O)C3CC3)c3ncnn32)cc1` (configuration not stated), with > 50 µM (inactive).
Then `O=C(Nc1ccc(SCc2nnc(-c3ccccc3)o2)cc1)C1CC1`, with 8.42 µM.
Turning to `O=C(NCc1ccc(Br)cc1)c1ccc(-c2cccnc2)nc1`, the IC50 is 21.7 µM.
As to `O=C(COc1ccc2c(-c3ccccc3)cc(=O)oc2c1)Nc1cccnc1`, the IC50 was 2.54 µM.
Then `CC(C)(C)c1ccc(C(=O)Nc2ccc(Cn3cncn3)cc2)cc1`, with 28 µM; and `Cc1cccc(-n2ccnc(SCC(=O)Nc3ccc(Cl)cc3F)c2=O)c1`, with 3.91 µM.
Then `CN1CCN(c2ccc3nc(-c4ccccc4)c(-c4ccccc4)nc3c2)CC1`, with > 50 µM (inactive); and `Cc1ccccc1-c1noc(-c2ccccc2OCC(=O)NC(C)C)n1`, with > 50 µM (inactive).
On to `Cc1ccc2oc(=O)c(S(=O)(=O)N3CCCCC3)cc2c1`, for which the half-inhibitory concentration (IC50) was 23.2 µM.

A word on the IC50: it is the concentration needed to halve the response being measured.
